Measured values: PubChem BioAssay AID260 (DTP/NCI, 2004)
Values joined by “and” are separate entries in the source; they are usually repeats but may differ in a detail not shown here. Equal entries are not always repeated. Inconclusive results and toxic doses are left out.

Tested on: CD2F1 mice, intracerebral L1210 leukemia, survival T/C
Assay: NCI In Vivo Anticancer Drug Screen. Data for tumor model L1210 Leukemia (intracerebral) in CD2F1 (CDF1) mice
Conditions: higher = longer survival
Protocol: The antitumor activity of compounds was measured in mice bearing transplantable tumors. Survival or tumor size were measured and the results are expressed as the measurement made in the treated group (T) divided by the measurement made in the vehicle treated control group (C). The tumor model used in this assay is L1210 Leukemia (intracerebral) in CD2F1 (CDF1) mice

[1] = endpoint: median survival time, dose: 32.0 mg/kg/injection, schedule: Q01DX005 (ip), vehicle: saline with Tween-80
[2] = endpoint: median survival time, dose: 64.0 mg/kg/injection, schedule: Q01DX005 (ip), vehicle: saline with Tween-80
[3] = endpoint: median survival time, dose: 128.0 mg/kg/injection, schedule: Q01DX005 (ip), vehicle: saline with Tween-80
[4] = endpoint: median survival time, dose: 16.0 mg/kg/injection, schedule: Q01DX005 (ip), vehicle: saline with Tween-80

CN(C)CCCN1c2ccccc2Sc2ccc(Cl)cc21
T/C (endpoint: median survival time, dose: 50.0 mg/kg/injection, schedule: Q01DX001 (ip), vehicle: water): 113 % of control

CN(C)N=Nc1ccc([N+](=O)[O-])cc1C(N)=O
T/C [1]: 100 % of control
T/C [2]: 98 % of control
T/C [3]: 121 % of control

C[C@]1(O)CC[C@H]2[C@@H]3CCC4=CC(=O)CC[C@]4(C)[C@@]3(F)[C@@H](O)C[C@@]21C
T/C (endpoint: median survival time, dose: 8.0 mg/kg/injection, schedule: Q01DX009 (ip), vehicle: saline with Tween-80): 112 % of control
T/C (endpoint: median survival time, dose: 16.0 mg/kg/injection, schedule: Q01DX009 (ip), vehicle: saline with Tween-80): 112 % of control
T/C (endpoint: median survival time, dose: 32.0 mg/kg/injection, schedule: Q01DX009 (ip), vehicle: saline with Tween-80): 104 % of control
T/C (endpoint: median survival time, dose: 64.0 mg/kg/injection, schedule: Q01DX009 (ip), vehicle: saline with Tween-80): 104 % of control
T/C (endpoint: median survival time, dose: 128.0 mg/kg/injection, schedule: Q01DX009 (ip), vehicle: saline with Tween-80): 122 % of control
T/C (endpoint: median survival time, dose: 256.0 mg/kg/injection, schedule: Q01DX009 (ip), vehicle: saline with Tween-80): 104 % of control
T/C (endpoint: median survival time, dose: 512.0 mg/kg/injection, schedule: Q01DX009 (ip), vehicle: saline with Tween-80): 96 % of control

CN(C)/N=N/c1[nH]ncc1C(N)=O
T/C [1]: 112 % of control
T/C [3]: 122 % of control
T/C (endpoint: median survival time, dose: 256.0 mg/kg/injection, schedule: Q01DX005 (ip), vehicle: saline with Tween-80): 114 % of control

CCCCN(C)N=Nc1c(C(N)=O)n[nH]c1C
T/C [4]: 108 % of control
T/C [1]: 112 % of control
T/C [2]: 96 % of control

O=C1C=CN(C2OC(CO)C(O)C2O)C(=O)C1 (stereo not drawn)
T/C (endpoint: mean survival time, dose: 33.0 mg/kg/injection, schedule: Q01DX009 (ip), vehicle: saline): 150 % of control
T/C (endpoint: median survival time, dose: 100.0 mg/kg/injection, schedule: Q01DX009 (ip), vehicle: saline): 116 % of control
T/C (endpoint: median survival time, dose: 200.0 mg/kg/injection, schedule: Q01DX009 (ip), vehicle: saline): 105 % of control
T/C (endpoint: median survival time, dose: 400.0 mg/kg/injection, schedule: Q01DX009 (ip), vehicle: saline): 107 % of control

CN(C)C1=C(N2CC2)C(=O)C(N(C)C)=C(N2CC2)C1=O
T/C (endpoint: mean survival time, dose: 0.75 mg/kg/injection, schedule: Q04DX003 (ip), vehicle: saline): 122 % of control and 110 % of control
T/C (endpoint: mean survival time, dose: 1.5 mg/kg/injection, schedule: Q04DX003 (ip), vehicle: saline): 152 % of control and 154 % of control
T/C (endpoint: mean survival time, dose: 3.0 mg/kg/injection, schedule: Q04DX003 (ip), vehicle: saline): 156 % of control and 172 % of control

COc1cc(C[C@H]2c3cc(OC)c(OC)cc3CCN2C)c(Oc2cc3c(cc2OC)-c2c(OC)c(OC)cc4c2[C@H](C3)N(C)CC4)cc1OC
T/C (endpoint: median survival time, dose: 50.0 mg/kg/injection, schedule: Q01DX005 (ip), vehicle: Klucel (hydroxypropylcellulose) (HPC)): 97 % of control
T/C (endpoint: median survival time, dose: 100.0 mg/kg/injection, schedule: Q01DX005 (ip), vehicle: Klucel (hydroxypropylcellulose) (HPC)): 102 % of control
T/C (endpoint: median survival time, dose: 200.0 mg/kg/injection, schedule: Q01DX005 (ip), vehicle: Klucel (hydroxypropylcellulose) (HPC)): 94 % of control

CCC1=C(c2ccc(OC)cc2)CCC(C(=O)O)C1C (stereo not drawn)
T/C (endpoint: median survival time, dose: 4.0 mg/kg/injection, schedule: Q01DX005 (ip), vehicle: saline): 103 % of control
T/C (endpoint: median survival time, dose: 4.0 mg/kg/injection, schedule: Q01DX005 (ip), vehicle: suspension in saline): 102 % of control
T/C (endpoint: median survival time, dose: 8.0 mg/kg/injection, schedule: Q01DX005 (ip), vehicle: saline): 114 % of control
T/C (endpoint: median survival time, dose: 8.0 mg/kg/injection, schedule: Q01DX005 (ip), vehicle: suspension in saline): 102 % of control
T/C (endpoint: median survival time, dose: 16.0 mg/kg/injection, schedule: Q01DX005 (ip), vehicle: saline): 112 % of control
T/C (endpoint: median survival time, dose: 16.0 mg/kg/injection, schedule: Q01DX005 (ip), vehicle: suspension in saline): 96 % of control
T/C (endpoint: median survival time, dose: 32.0 mg/kg/injection, schedule: Q01DX005 (ip), vehicle: saline): 102 % of control
T/C (endpoint: median survival time, dose: 32.0 mg/kg/injection, schedule: Q01DX005 (ip), vehicle: suspension in saline): 104 % of control

C#CCN(C)/N=N/c1nc[nH]c1C(N)=O
T/C [4]: 118 % of control
T/C [2]: 124 % of control
T/C [3]: 120 % of control
